Among the data in patent US10273230B2, “Substituted phenyl alkanoic acid compounds as GPR120 agonists and uses thereof” (Piramal Enterprises Limited, priority 2014, dated 2019) are EC50 values, retold here.

pEC50: −log10 of the molar value.

GPR120 receptor, sequence (Q5NUL3 whole entry, the tested form may be a part): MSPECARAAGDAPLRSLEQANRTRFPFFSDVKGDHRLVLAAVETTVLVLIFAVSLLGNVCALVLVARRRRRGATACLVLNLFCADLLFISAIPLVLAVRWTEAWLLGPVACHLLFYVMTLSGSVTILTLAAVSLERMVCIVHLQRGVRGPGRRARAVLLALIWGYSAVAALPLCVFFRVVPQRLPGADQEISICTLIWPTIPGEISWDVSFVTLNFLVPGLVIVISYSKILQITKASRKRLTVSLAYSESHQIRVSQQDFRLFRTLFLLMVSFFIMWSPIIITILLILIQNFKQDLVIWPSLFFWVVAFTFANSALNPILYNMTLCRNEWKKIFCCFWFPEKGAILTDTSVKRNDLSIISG
GPR120 receptor, sequence (P32121 whole entry partner, the tested form may be a part): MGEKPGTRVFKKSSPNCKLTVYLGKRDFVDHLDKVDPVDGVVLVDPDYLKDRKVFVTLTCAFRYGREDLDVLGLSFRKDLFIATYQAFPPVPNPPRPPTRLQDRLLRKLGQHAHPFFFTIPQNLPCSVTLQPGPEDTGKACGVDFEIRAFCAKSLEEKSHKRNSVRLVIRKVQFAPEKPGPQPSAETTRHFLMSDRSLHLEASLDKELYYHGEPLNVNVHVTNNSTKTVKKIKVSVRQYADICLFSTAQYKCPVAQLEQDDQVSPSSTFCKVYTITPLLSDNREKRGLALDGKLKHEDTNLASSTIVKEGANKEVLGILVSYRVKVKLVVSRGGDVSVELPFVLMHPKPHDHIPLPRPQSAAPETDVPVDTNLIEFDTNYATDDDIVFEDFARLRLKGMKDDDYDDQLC

The assay addresses GPR120 receptor (Homo sapiens (Human), UniProt Q5NUL3). Put plainly: Beta (β) arrestin 2 Interaction Assay (BRET assay), β-galactosidase enzyme fragment complementation. The assay is classed as cell-based. Conditions: CHO-K1 cells stably expressing the GPR120 receptor; β-arrestin recruitment; 2 hours incubation; 30 μM to 1 nM. As to the method: Beta (β) arrestin 2 Interaction Assay (BRET assay) was performed using CHO-K1 cells stably expressing the GPR120 receptor using β-galactosidase (Beta gal) enzyme fragment complementation assay. The measurement of GPR120 activation upon agonist activation was directly provided by β-arrestin recruitment. One day before the β-arrestin 2 assay, CHO-K1 cells were seeded and incubated overnight at 37° C. in a 5% CO2 humidified atmosphere. Cells were treated with the test compounds in the various concentrations ranging from 30 μM to 1 nM and incubated for 2 hours for GPCR (GPR120) activation. Extent of Arrestin recruitment was measured by adding detection reagents for Beta gal complementation assay and was further incubated for 1 hour. The chemi-luminescent signal was detected on Polar Star (BMG Labtech). The dose-response curve was analyzed using Sigma Plot/Graph Pad. The EC50 (concentration of the test compounds where 50% of compounds' maximal activity is observed) values were calculated from the dose-response curve.
Regarding `Cc1ccc(C2=C(COc3ccc(CCCC(=O)O)cc3)CCCC2)cc1` [Example 15, 4-(4-((4′-methyl-3,4,5,6-tetrahydro-[1,1′-biphenyl]-2-yl)methoxy)phenyl) butanoic Acid], the pEC50 is 6.30 to 7.30.

With `N#CC1(c2ccc(C3=C(COc4ccc(CCCC(=O)O)cc4)CCCC3)cc2)CC1` [Example 1, 4-(4-((4′-(1-cyanocyclopropyl)-3,4,5,6-tetrahydro-[1,1′-biphenyl]-2-yl)methoxy)phenyl) butanoic Acid], the negative-log EC50 (pEC50) was 5.30 to 6.30.

Compound `Nc1ncc(C2=C(COc3ccc(CCCC(=O)O)cc3)CCCC2)cc1C(F)(F)F` [Example 8, 4-(4-((2-(6-amino-5-(trifluoromethyl)pyridin-3-yl)cyclohex-1-en-1-yl)methoxy)phenyl)butanoic Acid] showed a pEC50 of 5.30 to 6.30.

The compound `N#CC1(c2ccc(C3=C(COc4ccc(CCCC(=O)O)cc4)COCC3)cc2)CC1` [Example 48, 4-(4-((4-(4-(1-cyanocyclopropyl)phenyl)-5,6-dihydro-2H-pyran-3-yl)methoxy)phenyl) butanoic Acid] showed a pEC50 of 5.30 to 6.30.

As for `COc1ccc(C2=C(COc3ccc(CCCC(=O)O)cc3)CCCC2)cn1` [Example 14, 4-(4-((2-(6-methoxypyridin-3-yl)cyclohex-1-en-1-yl)methoxy)phenyl) butanoic Acid], the negative logarithm of the EC50 (pEC50) is 5.30 to 6.30.

The compound `CC1CCC(c2ccc(C3(C#N)CC3)cc2)=C(COc2ccc(CCCC(=O)O)cc2)C1` (stereo not shown) [Example 53, 4-(4-((4′-(1-cyanocyclopropyl)-4-methyl-3,4,5,6-tetrahydro-[1,1′-biphenyl]-2-yl)methoxy)phenyl)butanoic Acid] had a pEC50 of 5.30 to 6.30.

`Cc1ccc(C2=C(COc3ccc(CCCC(=O)O)cc3)CCCCC2)cc1` [Example 22, 4-(4-((2-(p-tolyl)cyclohept-1-en-1-yl)methoxy)phenyl)butanoic Acid] showed a pEC50 of 6.30 to 7.30.

Turning to `O=C(O)CCCc1ccc(OCC2=C(c3nc4c(s3)CCCC4)CCCC2)cc1` [Example 4, 4-(4-((2-(4,5,6,7-tetrahydrobenzo[d]thiazol-2-yl)cyclohex-1-en-1-yl)methoxy)phenyl) butanoic Acid], the pEC50 was 5.30 to 6.30.

In the case of `COc1ccc(C2=C(COc3ccc(CCCC(=O)O)cc3)CCCC2)cc1` [Example 6, 4-(4-((4′-methoxy-3,4,5,6-tetrahydro-[1,1′-biphenyl]-2-yl)methoxy)phenyl)butanoic Acid], the pEC50 was 5.30 to 6.30.

As to `O=C(O)CCCc1ccc(OCC2=C(C3=CCCCC3)CCCC2)cc1` [Example 10, 4-(4-([1,1′-bi(cyclohexane)]-1,1′-dien-2-ylmethoxy)phenyl) butanoic Acid], the pEC50 was 5.30 to 6.30.

The compound `Cc1ccc(OC2=C(COc3ccc(CCCC(=O)O)cc3)CCCC2)cc1` [Example 50, 4-(4-((2-(p-tolyloxy)cyclohex-1-en-1-yl)methoxy)phenyl)butanoic Acid] had a negative logarithm of the EC50 (pEC50) of 5.30 to 6.30.

`Cc1ccc(C2=C(COc3ccc(CCCC(=O)O)cc3)CC(F)CC2)cc1` (stereo not shown) [Example 54, 4-(4-((4-fluoro-4′-methyl-3,4,5,6-tetrahydro-[1,1′-biphenyl]-2-yl)methoxy)phenyl) butanoic Acid] gave a negative logarithm of the EC50 (pEC50) of 5.30 to 6.30.

Compound `O=C(O)CCCc1ccc(OCC2=C(c3ccc(C4CC4)cc3)CCCC2)cc1` [Example 7, 4-(4-((4′-cyclopropyl-3,4,5,6-tetrahydro-[1,1′-biphenyl]-2-yl)methoxy)phenyl)butanoic Acid] had a pEC50 of 6.30 to 7.30.

`N#CC1(c2ccc(C3=C(COc4ccc(CCCC(=O)O)cc4)CCCCC3)cc2)CC1` [Example 21, 4-(4-((2-(4-(1-cyanocyclopropyl)phenyl)cyclohept-1-en-1-yl)methoxy)phenyl) butanoic Acid] had a pEC50 of 5.30 to 6.30.

For `O=C(O)CCCc1ccc(OCC2=C(c3ccc4c(c3)CCCC4)CCCC2)cc1` [Example 9, 4-(4-((2-(5,6,7,8-tetrahydronaphthalen-2-yl)cyclohex-1-en-1-yl)methoxy)phenyl) butanoic Acid], the pEC50 was 6.30 to 7.30.

For `O=C(O)CCCc1ccc(OCC2=C(c3ccc4c(c3)CCCC4)CCOC2)cc1` [Example 49, 4-(4-((4-(5,6,7,8-tetrahydronaphthalen-2-yl)-5,6-dihydro-2H-pyran-3-yl)methoxy)phenyl) butanoic Acid], the pEC50 is 5.30 to 6.30.
